Values joined by “and” are separate entries in the source; they are usually repeats but may differ in a detail not shown here. Identical values can stand only once.
Assays:
CAMA1 cells = experiment: Cell proliferation assay (Sytox Green), CAMA1; format: cell-based; conditions: Homo sapiens, CAMA-1, 144 h; CAMA1, 6 days; read-out: growth inhibition IC50
Method: Cell proliferation was assessed by measuring live cell numbers using the Sytox Green assay. MCF7 and CAMA1 cells were seeded in 96-well clear-bottom black microplates (Costar) at 4x10^3 and 8x10^3 cells per well, respectively, based on the doubling time of each cell line. Plates were incubated at 37 °C, 5% CO2 for 24 hours prior to being treated with DMSO, AZ’6421 or fulvestrant in a 10-point concentration range, with a final DMSO concentration of 0.1%. A single plate was left untreated, designated a Day 0 plate. The number of live cells was determined at Day 0 and Day 7 using the Sytox green assay. Briefly, 5 mM Sytox green nucleic acid dye (Invitrogen) was diluted 1:2500 in 500 mM tris-buffered saline (TBS) with ethylenediaminetetraacetic acid (EDTA) and 7 μL was added per well. Plates were then incubated in the dark at room temperature for 1 hour and the number of green cells in each well (dead cells) was measured using an Acumen Explorer high-throughput cell imager (TTP Labtech). Next, 14 μL of 0.25% w/v Saponin in TBS/EDTA solution was added overnight to permeabilize the cells, permitting a total cell count. The number of live cells was calculated by subtracting the dead cell count from the total cell count. The data obtained were then used to perform curve fitting analysis using GraphPad Prism. Average cell counts from the Day 0 plate were used to determine 0% cell growth. […]

uterus = experiment: Immature female rat model, uterine weight and histology; format: in vivo; conditions: for Uterine weight normalised to body weight (% vehicle): individual animals, listed as AZ'6421
Text: Some endocrine therapies, such as tamoxifen, have been reported to display weak agonistic activity in the endometrium due to altered cofactor recruitment and subsequent activation of gene transcription. We therefore sought to test whether AZ’6421 was a complete antagonist or could act as a partial agonist, in both in vitro and in vivo models. […] Plasma samples were taken 4 hr after the 4th dose, at the same time as the uterus was weighed and sectioned for H&E staining. To further explore whether AZ’6421 may be acting as an agonist in vivo, morphological changes of the uterine were examined: uterine horns were formalin-fixed paraffin-embedded, stained with haematoxylin and eosin and then transverse sections of uterus examined.

ERα = target: T1, ERα (Homo sapiens, UniProt P03372); experiment: Western blot analysis of ERα in MCF7 cells (dose response, MG132, VHL ligand and cpd 8 competition); format: cell-based; conditions: Figure 6f, read-out: ERa % of control
T1 construct: endogenous in cells; host or cells: MCF7 (also MCF7 engineered to express Cas9)
T1 sequence (P03372 1-595): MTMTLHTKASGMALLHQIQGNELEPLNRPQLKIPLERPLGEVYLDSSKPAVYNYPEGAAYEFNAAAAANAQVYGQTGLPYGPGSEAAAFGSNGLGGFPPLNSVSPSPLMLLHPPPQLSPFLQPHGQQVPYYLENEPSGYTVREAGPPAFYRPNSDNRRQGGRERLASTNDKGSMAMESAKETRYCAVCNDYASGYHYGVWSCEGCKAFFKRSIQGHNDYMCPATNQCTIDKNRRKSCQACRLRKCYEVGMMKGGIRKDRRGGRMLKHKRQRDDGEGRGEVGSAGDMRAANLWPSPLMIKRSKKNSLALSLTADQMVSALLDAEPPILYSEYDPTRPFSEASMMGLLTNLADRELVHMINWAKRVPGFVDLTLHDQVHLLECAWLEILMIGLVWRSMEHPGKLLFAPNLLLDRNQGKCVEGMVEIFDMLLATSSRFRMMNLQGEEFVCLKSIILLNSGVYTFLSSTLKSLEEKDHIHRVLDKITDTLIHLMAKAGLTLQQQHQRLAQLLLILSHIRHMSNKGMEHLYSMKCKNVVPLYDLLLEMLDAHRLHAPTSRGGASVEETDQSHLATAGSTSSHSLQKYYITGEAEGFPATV

Row | SMILES | IC50 (CAMA1 cells) [nM] | Uterine weight normalised to body weight (% vehicle) (uterus; 30 mg/kg BID) | Uterine weight normalised to body weight (% vehicle) (uterus; 100 mg/kg BID) | uterine weight (uterus; 30 and 100 mg/kg, immature female rat, 4 days) | uterine epithelium morphology (H&E) (uterus; immature female rat, 4 days dosing) | remaining activity at 0.001 µM (ERα; 1 nM) [%] | remaining activity at 0.01 µM (ERα; 10 nM) [%] | remaining activity at 0.03 µM (ERα; 30 nM) [%] | remaining activity at 0.1 µM (ERα; 100 nM) [%] | remaining activity at 0.3 µM (ERα; 300 nM) [%] | remaining activity at 1 µM (ERα; 1000 nM) [%]
1 | Cc1ncsc1-c1ccc(CNC(=O)[C@@H]2C[C@@H](O)CN2C(=O)[C@@H](NC(=O)COCCCOCCCOc2cc(F)c([C@@H]3c4[nH]c5ccccc5c4C[C@@H](C)N3CC(C)(C)F)c(F)c2)C(C)(C)C)cc1 [Compound 5] | 0.2 | 100.01% and 167.09% and 162.21% and 134.02% and 93.04% | 147.05% and 110.41% and 107.36% and 113.51% and 133.84% | trend of increased uterine weight | tall columnar uterine epithelium | – | – | – | – | – | –
2 | C[C@@H]1Cc2c([nH]c3ccccc23)[C@@H](c2c(F)cc(OCCC(=O)O)cc2F)N1CC(C)(C)F [Compound 8] | – | – | – | – | – | 51.3 | 51.6 | 47.7 | 29.2 | 46.3 | 42

— PMC11091220, “Metabolism-driven in vitro/in vivo disconnect of an oral ERɑ VHL-PROTAC” (Communications Biology, 2024)
